Data from patent publication US10598672B2, “Methods and compositions for diagnosing and treating loss and/or distortion of taste or smell” (Cyrano Therapeutics, Inc., priority 2014, dated 2020).

Key:
Type in all cases: in vivo, human
[1] = tested on: patients with taste dysfunction; assay: Gustometry: DT, RT, ME (and HR) for NaCl, sucrose, HCl, urea
Description: Smell and taste functions under each study condition were measured by standardized psychophysical sensory testing techniques. Measurements included determination of detection thresholds (DTs), recognition thresholds (RTs), magnitude estimation (ME), and hedonic response (HR) for 4 odors (i.e., pyridine [dead fish], nitrobenzene [bitter almond], thiophene [petroleum], and amyl acetate [banana oil]) (olfactometry) and for 4 tastants (i.e., sodium chloride [salt], sucrose [sweet], hydrochloride [sour], and urea [bitter]) (gustometry). These techniques have been previously described with olfactometry confirmed in a prior controlled double-blind clinical trial. Each measurement was performed independent of any prior knowledge of response.
Gustometry measurements included measurements of detection (DT) and recognition (RT) thresholds and magnitude estimation (ME) for four tastants [NaCl (salt), sucrose (sweet), HCl (sour) and urea (bitter)]. Abnormalities of taste function were measured by increased DT or RT above normal (decreased sensitivity) and/or decreased ME (decreased sensitivity) for one or more of the tastants presented.

[2] = tested on: patients with hyposmia and hypogeusia; assay: Open-label pilot study oral vs intranasal theophylline: subjective smell and taste function by questionnaire (0-100)
Description: We performed an open-label pilot study in patients with hyposmia and hypogeusia under the following 3 conditions: (1) before treatment, (2) after oral theophylline treatment, and (3) after intranasal theophylline treatment. Under each condition, we performed subjective evaluations of taste or smell functions, quantitative measurements of taste (gustometry) and smell (olfactometry), and measurements of serum theophylline level and body weight.
Subjective changes in smell and taste function under each study condition were measured by questionnaire before measurements of smell or taste function. Responses were graded on a scale from 0 to 100, with 0 reflecting no subjective response in overall sensory function; 100, return to normal sensory function; and values between 0 and 100 intermediate responses. Overall sensory function was defined as the ability to smell all odors and identify all tastants, although response intensity varied.
The 10 patients in this intranasal pilot study entered into the previous oral theophylline study according to a protocol approved by the institutional review board of the Georgetown University Medical Center. In this prior trial, oral theophylline was administered daily in 2 divided doses (at breakfast and lunch) of 200, 400, 600, or 800 mg for 2 to 12 months of treatment. Treatment was divided into 2- to 4-month periods, at which time patients returned to The Clinic for measurements of subjective sensory responses, olfactometry, gustometry, serum theophylline level, and body weight. […] In the 10 patients selected for the intranasal pilot study, oral theophylline treatment was discontinued 3 weeks to 4 months before initiation of the intranasal drug trial. At that time, the mean (SEM) serum theophylline level was unmeasurable in any patient (0 [0] mg/L).
A pilot study of intranasal theophylline treatment was then initiated among these 10 patients. This trial was an investigator initiated phase 1, open-label, single-source, controlled pilot study. Intranasal drug therapy reflected a compassionate trial of a potentially more useful therapeutic method to improve hyposmia (and hypogeusia) than oral theophylline. Before the intranasal trial, risks and benefits were explained and the patients signed an informed consent.
The intranasal administration device was a calibrated 1 mL syringe fitted with a nozzle that fit comfortably into the anterior naris (Wolfe Tory Medical, Inc.) and loaded under sterile conditions with 20 μg of theophylline methylpropyl paraben in a 0.4-mL saline solution (Foundation Care). Patients were instructed to direct the spray superiorly into the nasal cavity but not posteriorly into the nasopharynx. This technique was practiced before study initiation with sterile saline.
Each patient delivered the theophylline dose in each naris once daily throughout the study. Patients underwent evaluation 1, 2, and 4 weeks during drug use with the same measurements used for the oral study.
Values for the oral trial were taken from the last measurements made before discontinuation of oral drug treatment and before initiation of the intranasal trial. This period varied from 2 to 12 months after oral treatment initiation and reflected the maximal improvement in sensory function each patient experienced. Values for the intranasal pilot study were taken from measurements obtained after completion of 4 weeks of intranasal treatment.
The mean and standard error of the mean for all values obtained at each study condition were compared. Differences were considered significant if P<0.05 by the unpaired t test. Paired comparison tests were also used with differences considered significant if P<0.05 by the t test.

[3] = Serum theophylline level by fluorescence polarization
Description: Serum theophylline levels were measured by fluorescence polarization at each treatment condition. Body weight was measured with a calibrated clinical scale during each study condition and reported at the final measurement in each study condition.

[4] = TH[…] (81) patients with taste dysfunction, Mean ± SEM
[5] = after intranasal treatment vs before treatment or after oral treatment
[6] = after oral treatment vs before treatment
[7] = after discontinuation of intranasal treatment

**Q.** Which results are given for `Cn1c(=O)c2[nH]cnc2n(C)c1=O` [theophylline]?
**A.** NaCl DT, Detection Threshold [1, 4]: 3.4 ± 0.2^; NaCl ME, Magnitude Estimation [1, 4]: 58 ± 5; NaCl RT, Recognition Threshold [1, 4]: 3.6 ± 0.2; SCl DT, Detection Threshold [1, 4]: 3.6 ± 0.2; SCl ME, Magnitude Estimation [1, 4]: 54 ± 5; SCl RT, Recognition Threshold [1, 4]: 3.7 ± 0.3; SUCROSE DT, Detection Threshold [1, 4]: 3.3 ± 0.2; SUCROSE ME, Magnitude Estimation [1, 4]: 49 ± 5; SUCROSE RT, Recognition Threshold [1, 4]: 3.6 ± 0.2; UREA DT, Detection Threshold [1, 4]: 3.9 ± 0.3; UREA ME, Magnitude Estimation [1, 4]: 54 ± 5; UREA RT, Recognition Threshold [1, 4]: 3.9 ± 0.3; DTs and RTs for all tastants [1, 5]: lower (more sensitive); HRs for sucrose [1, 5]: more positive (more pleasant); Hedonic responses for sodium chloride, hydrochloride, and urea [1, 5]: more negative (more unpleasant); Magnitude estimations for all tastants [1, 5]: higher (more intense); DTs for sucrose and hydrochloride and RTs for sodium chloride, hydrochloride, and urea [1, 6]: decreased (more sensitive); HR for hydrochloride and urea [1, 6]: increased (more unpleasant); Magnitude estimations for all tastants [1, 6]: increased (more sensitive); gustometric functions ([1]; patients with taste dysfunction, oral treatment): improving gustometric functions; patients reporting some persistence of improvement after 10 weeks [2, 7]: Four; patients with loss of smell and taste function after 6 weeks [2, 7]: 2 patients; patients with loss of smell and taste function within 1 week of discontinuation [2, 7]: 2 patients; earliest improvement measured after starting treatment ([2]; intranasal treatment): 1 week; improvement measured for taste or smell functions compared with oral treatment ([2]; intranasal, 4 weeks, subjective): 2 fold; patients who reported no improvement ([2]; of 10 patients, intranasal treatment): 2 patients; patients with improved taste or smell acuity / overall improvement in taste or smell functions ([2]; of 10 patients, intranasal, 20 μg in each naris once daily, 4 weeks): 8 patients; patients who reported no improvement ([2]; of 10 patients, oral treatment): 4 patients; patients with improved taste or smell acuity / overall increased taste or smell function ([2]; of 10 patients, oral, 200 to 800 mg/d for 2 to 12 months): 6 patients; earliest improvement of hyposmia measured after ([2]; oral treatment): 2 months; mean (SEM) serum theophylline level ([3]; during oral treatment, at time of maximum improvement, 10 patients): 6.4 (2.0) mg/L; concentration at 4 weeks ([3]; human, serum, other: intranasal, 20 μg per naris, during intranasal treatment): 0 ng/mL
